Like-named read-outs stand apart in the source and are kept apart here.
What was measured:
ALK5/TGFBR1 = molecular target: T1, ALK5/TGFBR1 (Homo sapiens, UniProt P36897); test: HotSpot kinase assay; format: biochemical; conditions: read-out: % Enzyme Activity (relative to DMSO controls)
T1 construct: purchased Reaction Biology Corporation

BRSK2 = molecular target: T2, BRSK2 (Homo sapiens, UniProt Q8IWQ3); test: HotSpot kinase assay; format: biochemical; conditions: read-out: % Enzyme Activity (relative to DMSO controls)
T2 construct: purchased Reaction Biology Corporation

c-Src = molecular target: T3, c-Src (Homo sapiens, UniProt P12931); test: biochemical
T3 construct: purchased Reaction Biology Corporation

CAMK2g = molecular target: T4, CAMK2g (Homo sapiens, UniProt Q13555); test: HotSpot kinase assay; format: biochemical; conditions: read-out: % Enzyme Activity (relative to DMSO controls)
T4 construct: purchased Reaction Biology Corporation

CDK1/cyclin B = molecular target: T5, CDK1/cyclin B (Homo sapiens, UniProt P06493); test: HotSpot kinase assay; format: biochemical; conditions: read-out: % Enzyme Activity (relative to DMSO controls)
T5 construct: purchased Reaction Biology Corporation

CDK2/cyclin A = molecular target: T6, CDK2/cyclin A (Homo sapiens, UniProt P24941); test: HotSpot kinase assay; format: biochemical; conditions: read-out: % Enzyme Activity (relative to DMSO controls)
T6 construct: purchased Reaction Biology Corporation

CDK2/cyclin O = molecular target: T7, CDK2/cyclin O (Homo sapiens, UniProt P24941); test: HotSpot kinase assay; format: biochemical; conditions: read-out: % Enzyme Activity (relative to DMSO controls)
T7 construct: purchased Reaction Biology Corporation

CK1a1L = molecular target: T8, CK1a1L (Homo sapiens, UniProt Q8N752); test: HotSpot kinase assay; format: biochemical; conditions: read-out: % Enzyme Activity (relative to DMSO controls)
T8 construct: purchased Reaction Biology Corporation

CK1d = molecular target: T9, CK1d (Homo sapiens, UniProt P48730); test: HotSpot kinase assay; format: biochemical; conditions: read-out: % Enzyme Activity (relative to DMSO controls)
T9 construct: purchased Reaction Biology Corporation

CLK2 = molecular target: T10, CLK2 (Homo sapiens, UniProt P49760); test: HotSpot kinase assay; format: biochemical; conditions: read-out: % Enzyme Activity (relative to DMSO controls)
T10 construct: purchased Reaction Biology Corporation

DAPK2 = molecular target: T11, DAPK2 (Homo sapiens, UniProt Q9UIK4); test: HotSpot kinase assay; format: biochemical; conditions: read-out: % Enzyme Activity (relative to DMSO controls)
T11 construct: purchased Reaction Biology Corporation

DDR1 = molecular target: T12, DDR1 (Homo sapiens, UniProt Q08345); test: HotSpot kinase assay; format: biochemical; conditions: read-out: % Enzyme Activity (relative to DMSO controls)
T12 construct: purchased Reaction Biology Corporation

DMPK2 = molecular target: T13, DMPK2 (Homo sapiens, UniProt Q6DT37); test: HotSpot kinase assay; format: biochemical; conditions: read-out: % Enzyme Activity (relative to DMSO controls)
T13 construct: purchased Reaction Biology Corporation

DYRK2 = molecular target: T14, DYRK2 (Homo sapiens, UniProt Q92630); test: HotSpot kinase assay; format: biochemical; conditions: read-out: % Enzyme Activity (relative to DMSO controls)
T14 construct: purchased Reaction Biology Corporation

EPHA3 = molecular target: T15, EPHA3 (Homo sapiens, UniProt P29320); test: HotSpot kinase assay; format: biochemical; conditions: read-out: % Enzyme Activity (relative to DMSO controls)
T15 construct: purchased Reaction Biology Corporation

EPHA4 = molecular target: T16, EPHA4 (Homo sapiens, UniProt P54764); test: HotSpot kinase assay; format: biochemical; conditions: read-out: % Enzyme Activity (relative to DMSO controls)
T16 construct: purchased Reaction Biology Corporation

FLT1/VEGFR1 = molecular target: T17, FLT1/VEGFR1 (Homo sapiens, UniProt P17948); test: HotSpot kinase assay; format: biochemical; conditions: read-out: % Enzyme Activity (relative to DMSO controls)
T17 construct: purchased Reaction Biology Corporation

FLT4/VEGFR3 = molecular target: T18, FLT4/VEGFR3 (Homo sapiens, UniProt P35916); test: HotSpot kinase assay; format: biochemical; conditions: read-out: % Enzyme Activity (relative to DMSO controls)
T18 construct: purchased Reaction Biology Corporation

FRK/PTK5 = molecular target: T19, FRK/PTK5 (Homo sapiens, UniProt P42685); test: HotSpot kinase assay; format: biochemical; conditions: read-out: % Enzyme Activity (relative to DMSO controls)
T19 construct: purchased Reaction Biology Corporation

JAK2 = molecular target: T20, JAK2 (Homo sapiens, UniProt O60674); test: HotSpot kinase assay; format: biochemical; conditions: read-out: % Enzyme Activity (relative to DMSO controls)
T20 construct: purchased Reaction Biology Corporation

KHS/MAP4K5 = molecular target: T21, KHS/MAP4K5 (Homo sapiens, UniProt Q9Y4K4); test: HotSpot kinase assay; format: biochemical; conditions: read-out: % Enzyme Activity (relative to DMSO controls)
T21 construct: purchased Reaction Biology Corporation

KSR1 = molecular target: T22, KSR1 (Homo sapiens, UniProt Q8IVT5); test: biochemical; conditions: read-out: % Enzyme Activity (relative to DMSO controls)
T22 construct: purchased Reaction Biology Corporation

LATS2 = molecular target: T23, LATS2 (Homo sapiens, UniProt Q9NRM7); test: HotSpot kinase assay; format: biochemical; conditions: read-out: % Enzyme Activity (relative to DMSO controls)
T23 construct: purchased Reaction Biology Corporation

LYN = molecular target: T24, LYN (Homo sapiens, UniProt P07948); test: HotSpot kinase assay; format: biochemical; conditions: read-out: % Enzyme Activity (relative to DMSO controls)
T24 construct: purchased Reaction Biology Corporation

MAK = molecular target: T25, MAK (Homo sapiens, UniProt P20794); test: HotSpot kinase assay; format: biochemical; conditions: read-out: % Enzyme Activity (relative to DMSO controls)
T25 construct: purchased Reaction Biology Corporation

MARK4 = molecular target: T26, MARK4 (Homo sapiens, UniProt Q96L34); test: HotSpot kinase assay; format: biochemical; conditions: read-out: % Enzyme Activity (relative to DMSO controls)
T26 construct: purchased Reaction Biology Corporation

MNK1 = molecular target: T27, MNK1 (Homo sapiens, UniProt Q9BUB5); test: HotSpot kinase assay; format: biochemical; conditions: read-out: % Enzyme Activity (relative to DMSO controls)
T27 construct: purchased Reaction Biology Corporation

NEK11 = molecular target: T28, NEK11 (Homo sapiens, UniProt Q8NG66); test: HotSpot kinase assay; format: biochemical; conditions: read-out: % Enzyme Activity (relative to DMSO controls)
T28 construct: purchased Reaction Biology Corporation

p70S6Kb/RPS6KB2 = molecular target: T29, p70S6Kb/RPS6KB2 (Homo sapiens, UniProt Q9UBS0); test: HotSpot kinase assay; format: biochemical; conditions: read-out: % Enzyme Activity (relative to DMSO controls)
T29 construct: purchased Reaction Biology Corporation

PAK3 = molecular target: T30, PAK3 (Homo sapiens, UniProt O75914); test: HotSpot kinase assay; format: biochemical; conditions: read-out: % Enzyme Activity (relative to DMSO controls)
T30 construct: purchased Reaction Biology Corporation

PASK = molecular target: T31, PASK (Homo sapiens, UniProt Q96RG2); test: HotSpot kinase assay; format: biochemical; conditions: read-out: % Enzyme Activity (relative to DMSO controls)
T31 construct: purchased Reaction Biology Corporation

PDGFRa = molecular target: T32, PDGFRa (Homo sapiens, UniProt P16234); test: HotSpot kinase assay; format: biochemical; conditions: read-out: % Enzyme Activity (relative to DMSO controls)
T32 construct: purchased Reaction Biology Corporation

PLK3 = molecular target: T33, PLK3 (Homo sapiens, UniProt Q9H4B4); test: HotSpot kinase assay; format: biochemical; conditions: read-out: % Enzyme Activity (relative to DMSO controls)
T33 construct: purchased Reaction Biology Corporation

RON/MST1R = molecular target: T34, RON/MST1R (Homo sapiens, UniProt Q04912); test: HotSpot kinase assay; format: biochemical; conditions: read-out: % Enzyme Activity (relative to DMSO controls)
T34 construct: purchased Reaction Biology Corporation

SGK2 = molecular target: T35, SGK2 (Homo sapiens, UniProt Q9HBY8); test: HotSpot kinase assay; format: biochemical; conditions: read-out: % Enzyme Activity (relative to DMSO controls)
T35 construct: purchased Reaction Biology Corporation

TNK1 = molecular target: T36, TNK1 (Homo sapiens, UniProt Q13470); test: HotSpot kinase assay; format: biochemical; conditions: read-out: % Enzyme Activity (relative to DMSO controls)
T36 construct: purchased Reaction Biology Corporation

TRKC = molecular target: T37, TRKC (Homo sapiens, UniProt Q16288); test: HotSpot kinase assay; format: biochemical; conditions: read-out: % Enzyme Activity (relative to DMSO controls)
T37 construct: purchased Reaction Biology Corporation

ULK2 = molecular target: T38, ULK2 (Homo sapiens, UniProt Q8IYT8); test: HotSpot kinase assay; format: biochemical; conditions: read-out: % Enzyme Activity (relative to DMSO controls)
T38 construct: purchased Reaction Biology Corporation

[1] = Parallel artificial membrane permeability assay (PAMPA); format: in vitro ADME
VSV-S [2] = format: cell-based, VSV pseudotyped with SARS-CoV-2 spike
VSV-S [3] = format: cell-based, VSV pseudotyped with SARS-CoV-2 spike; remark: listed apart in the source
Akt (pAkt T308) = format: cell-based, monkey; conditions: 10µM
HaCat cells = test: cell proliferation and viability, ~50% confluence; conditions: 0.1–100 μM, 24 and 72 h; except 72 h at 100 μM

T3 sequence (P12931 whole entry): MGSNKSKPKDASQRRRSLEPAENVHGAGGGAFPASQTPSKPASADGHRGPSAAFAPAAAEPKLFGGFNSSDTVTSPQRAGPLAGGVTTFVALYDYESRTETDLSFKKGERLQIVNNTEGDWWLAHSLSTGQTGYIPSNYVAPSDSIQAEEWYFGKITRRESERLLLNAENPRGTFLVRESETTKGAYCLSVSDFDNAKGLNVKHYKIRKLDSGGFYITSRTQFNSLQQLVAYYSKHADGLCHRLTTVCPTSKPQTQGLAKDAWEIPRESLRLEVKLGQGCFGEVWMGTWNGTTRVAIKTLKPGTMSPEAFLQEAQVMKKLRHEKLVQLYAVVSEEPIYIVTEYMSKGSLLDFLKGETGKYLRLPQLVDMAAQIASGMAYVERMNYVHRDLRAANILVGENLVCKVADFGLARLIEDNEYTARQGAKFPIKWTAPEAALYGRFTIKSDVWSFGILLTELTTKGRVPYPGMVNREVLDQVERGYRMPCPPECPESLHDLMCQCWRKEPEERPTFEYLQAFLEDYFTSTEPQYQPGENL
T24 sequence (P07948 whole entry): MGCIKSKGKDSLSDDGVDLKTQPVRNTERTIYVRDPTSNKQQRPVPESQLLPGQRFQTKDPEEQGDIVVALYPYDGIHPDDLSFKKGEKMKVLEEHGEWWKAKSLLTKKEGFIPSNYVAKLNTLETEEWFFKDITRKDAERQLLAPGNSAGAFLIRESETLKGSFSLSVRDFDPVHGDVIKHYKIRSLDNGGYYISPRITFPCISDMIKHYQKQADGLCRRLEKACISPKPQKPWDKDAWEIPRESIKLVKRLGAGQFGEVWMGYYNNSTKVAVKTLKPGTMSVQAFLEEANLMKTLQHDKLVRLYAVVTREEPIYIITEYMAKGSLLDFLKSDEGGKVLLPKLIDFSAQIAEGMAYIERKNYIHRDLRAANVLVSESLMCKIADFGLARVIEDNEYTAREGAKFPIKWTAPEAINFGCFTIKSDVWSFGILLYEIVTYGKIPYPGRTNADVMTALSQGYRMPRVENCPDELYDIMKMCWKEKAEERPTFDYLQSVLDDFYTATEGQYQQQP
T26 sequence (Q96L34 whole entry): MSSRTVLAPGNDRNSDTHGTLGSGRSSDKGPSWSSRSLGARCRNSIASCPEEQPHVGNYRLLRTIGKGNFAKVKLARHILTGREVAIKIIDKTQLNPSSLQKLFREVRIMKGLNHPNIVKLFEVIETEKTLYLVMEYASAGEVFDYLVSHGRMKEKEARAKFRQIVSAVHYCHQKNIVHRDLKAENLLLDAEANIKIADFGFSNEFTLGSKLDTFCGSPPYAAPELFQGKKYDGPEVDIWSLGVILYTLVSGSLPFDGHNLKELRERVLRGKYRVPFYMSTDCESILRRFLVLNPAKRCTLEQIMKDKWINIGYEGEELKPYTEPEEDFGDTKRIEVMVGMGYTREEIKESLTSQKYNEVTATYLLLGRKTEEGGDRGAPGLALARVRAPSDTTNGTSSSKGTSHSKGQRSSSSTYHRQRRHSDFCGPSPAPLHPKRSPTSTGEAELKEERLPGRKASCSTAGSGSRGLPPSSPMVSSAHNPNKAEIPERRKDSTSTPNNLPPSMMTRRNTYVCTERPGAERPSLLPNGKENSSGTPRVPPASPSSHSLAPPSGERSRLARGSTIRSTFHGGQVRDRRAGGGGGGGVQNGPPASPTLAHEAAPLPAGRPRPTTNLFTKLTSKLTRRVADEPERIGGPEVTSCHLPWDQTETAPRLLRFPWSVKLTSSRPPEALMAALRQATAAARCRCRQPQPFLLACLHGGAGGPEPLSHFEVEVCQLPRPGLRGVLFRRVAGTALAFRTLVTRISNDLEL
T16 sequence (P54764 20-986): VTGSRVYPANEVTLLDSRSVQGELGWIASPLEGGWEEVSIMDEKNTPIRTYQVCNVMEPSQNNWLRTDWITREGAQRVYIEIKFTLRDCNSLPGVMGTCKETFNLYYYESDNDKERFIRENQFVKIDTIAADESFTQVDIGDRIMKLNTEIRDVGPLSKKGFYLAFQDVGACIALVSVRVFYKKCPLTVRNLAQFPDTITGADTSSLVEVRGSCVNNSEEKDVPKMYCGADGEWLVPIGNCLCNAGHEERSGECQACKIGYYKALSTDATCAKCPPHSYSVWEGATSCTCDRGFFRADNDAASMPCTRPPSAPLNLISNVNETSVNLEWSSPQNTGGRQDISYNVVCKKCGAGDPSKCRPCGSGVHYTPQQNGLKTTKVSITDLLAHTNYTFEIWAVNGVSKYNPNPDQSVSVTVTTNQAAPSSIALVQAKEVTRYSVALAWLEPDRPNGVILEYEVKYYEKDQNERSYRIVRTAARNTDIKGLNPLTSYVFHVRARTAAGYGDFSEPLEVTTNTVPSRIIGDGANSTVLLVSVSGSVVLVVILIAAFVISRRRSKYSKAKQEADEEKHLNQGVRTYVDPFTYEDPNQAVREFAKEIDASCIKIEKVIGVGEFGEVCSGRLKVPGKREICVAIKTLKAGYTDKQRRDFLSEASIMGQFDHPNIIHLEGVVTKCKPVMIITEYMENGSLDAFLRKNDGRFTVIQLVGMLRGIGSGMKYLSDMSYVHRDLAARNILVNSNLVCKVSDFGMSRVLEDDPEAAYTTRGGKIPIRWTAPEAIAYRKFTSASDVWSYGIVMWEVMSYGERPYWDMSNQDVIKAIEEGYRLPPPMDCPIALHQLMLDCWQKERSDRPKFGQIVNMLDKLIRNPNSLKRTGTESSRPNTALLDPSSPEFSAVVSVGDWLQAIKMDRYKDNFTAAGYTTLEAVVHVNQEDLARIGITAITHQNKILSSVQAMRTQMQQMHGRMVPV
T25 sequence (P20794 whole entry): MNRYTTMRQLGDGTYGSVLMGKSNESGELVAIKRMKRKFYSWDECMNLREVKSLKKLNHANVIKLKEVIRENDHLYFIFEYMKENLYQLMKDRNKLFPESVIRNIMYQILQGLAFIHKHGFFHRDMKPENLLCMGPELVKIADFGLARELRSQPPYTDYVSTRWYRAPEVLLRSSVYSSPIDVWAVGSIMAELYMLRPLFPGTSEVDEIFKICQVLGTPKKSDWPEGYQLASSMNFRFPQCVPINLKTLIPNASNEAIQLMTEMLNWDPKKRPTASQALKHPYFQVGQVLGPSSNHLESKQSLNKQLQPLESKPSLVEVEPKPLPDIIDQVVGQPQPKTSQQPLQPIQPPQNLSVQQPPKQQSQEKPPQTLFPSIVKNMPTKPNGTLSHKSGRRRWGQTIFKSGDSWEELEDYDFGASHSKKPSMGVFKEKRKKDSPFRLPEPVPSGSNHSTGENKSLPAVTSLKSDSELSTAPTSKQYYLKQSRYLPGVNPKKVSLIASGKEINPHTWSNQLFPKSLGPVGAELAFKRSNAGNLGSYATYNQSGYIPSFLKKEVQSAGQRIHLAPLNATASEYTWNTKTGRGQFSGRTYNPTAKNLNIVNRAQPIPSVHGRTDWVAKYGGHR
T33 sequence (Q9H4B4 whole entry): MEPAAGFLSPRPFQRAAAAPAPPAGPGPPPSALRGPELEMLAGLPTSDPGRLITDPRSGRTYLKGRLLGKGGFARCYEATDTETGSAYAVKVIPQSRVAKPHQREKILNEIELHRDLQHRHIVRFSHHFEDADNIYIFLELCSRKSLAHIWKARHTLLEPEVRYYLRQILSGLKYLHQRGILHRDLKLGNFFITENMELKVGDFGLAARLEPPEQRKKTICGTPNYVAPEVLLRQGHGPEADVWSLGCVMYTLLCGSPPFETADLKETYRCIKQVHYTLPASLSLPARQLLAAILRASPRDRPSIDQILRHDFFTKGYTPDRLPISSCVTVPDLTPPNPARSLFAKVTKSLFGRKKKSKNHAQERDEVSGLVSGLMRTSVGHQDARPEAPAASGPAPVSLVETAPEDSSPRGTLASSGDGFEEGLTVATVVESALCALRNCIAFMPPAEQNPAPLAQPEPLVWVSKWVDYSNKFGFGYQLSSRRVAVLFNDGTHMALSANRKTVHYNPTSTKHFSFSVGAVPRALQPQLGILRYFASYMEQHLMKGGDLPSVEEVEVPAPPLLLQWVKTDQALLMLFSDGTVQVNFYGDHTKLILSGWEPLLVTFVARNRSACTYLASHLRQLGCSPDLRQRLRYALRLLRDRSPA
T2 sequence (Q8IWQ3 whole entry): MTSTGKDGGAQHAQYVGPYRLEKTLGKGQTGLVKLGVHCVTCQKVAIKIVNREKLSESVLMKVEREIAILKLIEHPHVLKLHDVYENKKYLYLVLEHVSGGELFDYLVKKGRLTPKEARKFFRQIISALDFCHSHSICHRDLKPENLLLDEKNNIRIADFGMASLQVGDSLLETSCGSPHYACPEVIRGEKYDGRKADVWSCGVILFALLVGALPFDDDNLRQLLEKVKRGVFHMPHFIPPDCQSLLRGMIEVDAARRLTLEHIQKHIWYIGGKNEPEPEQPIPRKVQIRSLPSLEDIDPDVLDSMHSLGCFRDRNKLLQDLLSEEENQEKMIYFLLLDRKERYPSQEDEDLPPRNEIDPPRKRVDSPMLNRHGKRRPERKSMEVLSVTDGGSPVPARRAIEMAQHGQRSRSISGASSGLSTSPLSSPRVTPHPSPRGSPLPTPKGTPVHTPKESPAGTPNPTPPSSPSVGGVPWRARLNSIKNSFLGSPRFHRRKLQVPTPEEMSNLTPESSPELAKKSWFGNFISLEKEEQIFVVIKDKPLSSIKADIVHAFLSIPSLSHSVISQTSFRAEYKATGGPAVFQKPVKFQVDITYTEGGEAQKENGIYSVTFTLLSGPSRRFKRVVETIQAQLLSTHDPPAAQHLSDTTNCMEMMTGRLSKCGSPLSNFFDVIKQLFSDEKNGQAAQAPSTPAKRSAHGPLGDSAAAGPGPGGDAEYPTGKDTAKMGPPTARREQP

CO[C@@H]1[C@H](N(C)C(=O)CCC(=O)NCc2cn(CCCS(=O)(=O)O)nn2)C[C@H]2O[C@]1(C)n1c3ccccc3c3c4c(c5c6ccccc6n2c5c31)C(=O)NC4 [CIMSS]
remaining activity at 10 µM (ALK5/TGFBR1): 86.6% | remaining activity at 10 µM (BRSK2): 1.66% | IC50 (c-Src; Supplementary Table 1, read-out: IC50 (Molar concentration)): 0.0119 µM | remaining activity at 10 µM (c-Src; read-out: % Enzyme Activity (relative to DMSO controls), 10µM): 2.95% | remaining activity at 10 µM (CAMK2g): 1.25% | remaining activity at 10 µM (CDK1/cyclin B): 13.6% | remaining activity at 10 µM (CDK2/cyclin A): 5.14% | remaining activity at 10 µM (CDK2/cyclin O): 4.97% | remaining activity at 10 µM (CK1a1L): 82.8% | remaining activity at 10 µM (CK1d): 106% | remaining activity at 10 µM (CLK2): 4.13% | remaining activity at 10 µM (DAPK2): 11.3% | remaining activity at 10 µM (DDR1): 0.98% | remaining activity at 10 µM (DMPK2): 10.9% | remaining activity at 10 µM (DYRK2): 9.12% | remaining activity at 10 µM (EPHA3): 37.9% | remaining activity at 10 µM (EPHA4): 30.5% | remaining activity at 10 µM (FLT1/VEGFR1): 2.92% | remaining activity at 10 µM (FLT4/VEGFR3): 1.97% | remaining activity at 10 µM (FRK/PTK5): 4.49% | remaining activity at 10 µM (JAK2): 1.13% | remaining activity at 10 µM (KHS/MAP4K5): 5.19% | remaining activity at 10 µM (KSR1): 90.8% | remaining activity at 10 µM (LATS2): 6.54% | remaining activity at 10 µM (LYN): 2.5% | remaining activity at 10 µM (MAK): 13.2% | remaining activity at 10 µM (MARK4): 0.77% | remaining activity at 10 µM (MNK1): 42.6% | remaining activity at 10 µM (NEK11): 52% | remaining activity at 10 µM (p70S6Kb/RPS6KB2): 3.38% | remaining activity at 10 µM (PAK3): 6.48% | remaining activity at 10 µM (PASK): 41.6% | remaining activity at 10 µM (PDGFRa): 6.05% | remaining activity at 10 µM (PLK3): 98.2% | remaining activity at 10 µM (RON/MST1R): 25.1% | remaining activity at 10 µM (SGK2): 22.6% | remaining activity at 10 µM (TNK1): 3.88% | remaining activity at 10 µM (TRKC): 0.34% | remaining activity at 10 µM (ULK2): 13.6% | Recover % ([1]; 100 µM): 83% | Papp at 5 h, 100 μM ([1]; PAMPA, PBS pH 7.4, 5 h): 0.005 ×10⁻⁶ cm/s | VSV-S infection (VSV-S [2]): inhibited | VSV-S infection (VSV-S [3]): inhibited | extracellular phosphorylation of Akt (Akt (pAkt T308)): inhibited | inhibition of cell growth (HaCat cells): no significant inhibition

Source: PMC9569420 (Communications Biology, 2022)
